Tests used:
[1] = 20° C., normal pressure (1013 hPa); Chemical Handbook (Maruzen), Beilstein Online; cited from earlier work
[2] = Maximum dissolving concentration of organic solvent in water (Referential Example 1); format: physicochemical; conditions: solvent as solute in 80 g purified water, 20° C., visual observation
Description: One species of organic solvent or a mixture of two or more species of solvent to be used in this invention was selected by the following method. In a tightly closable glass vessel measuring 100 ml in inner volume and furnished with a lid, 80 g of purified water kept at a temperature of 20° C. was placed and stirred with a stirrer and meanwhile a given organic solvent or solvent mixture was added dropwise to the stirred water. The state of solution consequently assumed after one hour's standing was visually observed. When any residue of the solute was found in the solution, the confirmation of the solubility mentioned above was repeated, with the quantity of dropwise addition per round decreased. The minimum quantity of the organic solvent or the solvent mixture as the solute to be used for the dropwise addition was set at 0.02 g. […] Specifically, the magnitude found by the following formula,
(§1) Maximum dissolving concentration (% by weight)={Solute/(Solute+Solvent)}×100
is the maximum dissolving concentration contemplated by this invention. […] The present example concerns computation of the maximum dissolving concentration of a given solute in 80 g of a solvent in accordance with the formula mentioned above. The maximum dissolving concentration was determined at a solution temperature of 20° C. Incidentally, when two or more species of organic solvent are mixed and used in the distillation for azeotropic dehydration, the maximum dissolving concentration of the mixture is determined by the method described above.

[3] = Maximum dissolving concentration of maleic acid in the solvent (Referential Example 2); format: physicochemical; conditions: maleic acid as solute in 80 g solvent, 20° C., insoluble = residue even at 0.01 g
Description: (§2) In a tightly closable glass vessel measuring 100 ml in inner volume and furnished with a lid, 80 g of a given solvent kept at a temperature of 20° C. was placed and stirred with a stirrer and meanwhile maleic acid or fumaric acid of the special reagent grade as defined in the paragraph covering the determination of maximum dissolution concentration was added to the stirred solvent. The state of solution consequently assumed was visually confirmed. When the solute left any residue behind in the solution even after one hour's stirring, the sample was reported as insoluble. When the residue of the solute was found, the confirmation of the maximum dissolving concentration mentioned above was repeated, with the quantity of addition per round decreased. The minimum quantity of addition was set at 0.01 g. Thus, the maximum quantity of dropwise addition (weight of solute) which was recognized to have given rise to no residue of elute was determined and computed as the maximum dissolution concentration in 80 g of a given solvent. Specifically, the magnitude found by the following formula,
as §1
(§3) is the maximum dissolving concentration contemplated by this invention. When the elute left any residue behind in the solution even at the minimum quantity of dropwise addition of 0.01 g ([…]), the sample was reported as insoluble. Incidentally, the maximum dissolution concentration was measured at a solution temperature of 20° C.

[4] = Maximum dissolving concentration of fumaric acid in the solvent (Referential Example 2); format: physicochemical; conditions: fumaric acid as solute in 80 g solvent, 20° C., insoluble = residue even at 0.01 g
Description: as §2, §1, §3

## CCCCC(CC)CO (stereo not drawn) [2-ethyl-1-hexnol]
[1]
  Maximum dissolving concentration of the azeotropic solvent (1) in water: 0.10 % by weight

## CCCCCC(C)=O [2-heptanone]
[1]
  Maximum dissolving concentration of the azeotropic solvent (1) in water: 0.44 % by weight

## CCCCC(C)=O [2-hexanone]
[1]
  Maximum dissolving concentration of the azeotropic solvent (1) in water: 1.75 % by weight

## CCCC(=O)CC [3-hexnaone]
[1]
  Maximum dissolving concentration of the azeotropic solvent (1) in water: 1.57 % by weight

## CCC(=O)CC [3-pentanone]
[1]
  Maximum dissolving concentration of the azeotropic solvent (1) in water: 4.6 % by weight

## CC(C)CC(=O)CC(C)C [DIBK, diisobutyl ketone]
[2]
  Maximum dissolving concentration in water: 0.05 % by weight
[3]
  Maximum dissolving concentration in solvent, Maleic acid: 0.62 % by weight
[4]
  Maximum dissolving concentration in solvent, Fumaric acid: Insoluble

## CC(C)C(=O)C(C)C [DIPK, diisopropylketone]
[2]
  Maximum dissolving concentration in water: 0.41 % by weight
[3]
  Maximum dissolving concentration in solvent, Maleic acid: 1.22 % by weight
[4]
  Maximum dissolving concentration in solvent, Fumaric acid: 0.02 % by weight
[1]
  Maximum dissolving concentration of the azeotropic solvent (1) in water: 0.43 % by weight

## CC(=O)CC(C)C [MIBK, methyl isobutylketone]
[2]
  Maximum dissolving concentration in water: 1.85 % by weight
[3]
  Maximum dissolving concentration in solvent, Maleic acid: 4.14 % by weight
[4]
  Maximum dissolving concentration in solvent, Fumaric acid: 0.14 % by weight
[1]
  Maximum dissolving concentration of the azeotropic solvent (1) in water: 1.91 % by weight

## C=CCOC(C)=O [allyl acetate]
[1]
  Maximum dissolving concentration of the azeotropic solvent (1) in water: 2.8 % by weight

## CCCCCOC(C)=O [amyl acetate]
[1]
  Maximum dissolving concentration of the azeotropic solvent (1) in water: 0.25 % by weight

## Cc1ccccc1C [o-Xylene, o-xylene]
[2]
  Maximum dissolving concentration in water: 0.02 % by weight
[2]; listed as o-xylene
  Maximum dissolving concentration in water: low solubility in water
[3]
  Maximum dissolving concentration in solvent, Maleic acid: Insoluble
[3]; listed as o-xylene
  Maximum dissolving concentration in solvent, Maleic acid: did not dissolve
[4]
  Maximum dissolving concentration in solvent, Fumaric acid: Insoluble
[4]; listed as o-xylene
  Maximum dissolving concentration in solvent, Fumaric acid: did not dissolve

From patent publication US20030023101A1, “Method for production of maleic anhydride” (priority 2001, published 2003)
